The values that follow come from patent publication US6465007B1, “Transgene expression in polarized cells” (Genzyme Corporation, priority 1998, dated 2002).

Series [1] deals with polarized NHBE cells. Put plainly: Infection with Ad2βgal-4 after pretreatment, βgal expression. The class given is cell-based, human. The following applies: cells treated with the calcium chelator.
Description: Polarized NHBE cells were treated with Ca^2+-free medium (GIBCO) for 0.5 h and then rinsed twice with Opti-MEM (GIBCO). […] The cells were then infected by adding 200 μl of Opti-MEM containing Ad2βgal-4 or Ad2EGFP (100 moi) to the apical surface of the cultures, while 1 ml of OptiMEM was added to the outside of the insert. After 1 h, the viral suspension was removed, the cells washed twice with Opti-MEM and then 1 ml of the culture medium was added to the outside of the insert. Two days after infection, cells were assayed for βgal expression.
Series [2] concerns polarized NHBE cells. Put plainly: Binding and internalization of cationic lipid:pDNA complexes (TOTO-1 label, trypan blue quenching). On the procedure: Cells were incubated with TOTO-1 or Rh-PE labeled complexes at 37° C. for the times noted in the figure legends. Following incubation, cells were washed 7 times with cold PBS and then fixed in 2% paraformadehyde for 20 min at 4° C. The membrane of the insert was removed and mounted using immuno-mount (Shandon, Pittsburgh, Pa.) containing 2 μg/ml DAPI (Molecular Probes). Bound and internalized complexes were observed under a fluorescence microscope (Olympus, AX-70). To observe only internalized complexes, cells were washed 2 times with cold PBS and then the fluorescence of surface bound complexes was quenched by a 10 min incubation with trypan blue (1 mg/ml; Diagnostic Systems, Inc., Gibbstown, N.J.) on ice. Cells were then washed an additional 5 times with cold PBS, fixed and mounted.
Polarized NHBE cells were cultured using a modified procedure based on the methods described by Yamaya et al., American Journal of Physiology, 265:L170-L177 (1993), Jiang et al., Science, 262:424-427 (1993) and Gray et al., American Journal of Respiratory Cell & Molecular Biology, 14:104-112 (1996). Briefly, first passage NHBE cells were plated at a density of 2.5×10^5 cells/cm^2 onto inserts (Millicell-PCF, 0.4 μm pore size, Millipore) coated with human placental collagen (Sigma). The culture medium was the same as that described above for growing NHBE cells as islands. Cultures were maintained under air-liquid interface conditions starting at day 3 following the initial seeding. Cells were considered ready for use when the trans-epithelial resistance was •1000 Ωcm^2.

Series [3] relates to polarized NHBE cells. Put plainly: In vitro transfection with GL-67:pCF1-SEAP, secreted alkaline phosphatase in apical supernatant. In kind it is cell-based, human. How it is done:
Prior to transfection, polarized NHBE cells on inserts were incubated in either Opti-MEM, Opti-MEM containing 0.1% EGTA, or in Ca^2+-free media (Gibco) in both sides of the insert for 30 min at 37° C. The cells were then washed 3 times with Opti-MEM, and incubated with unlabeled GL-67:pCF1-SEAP (40:53 μM) for 4 h at 37° C., after which they were washed 3 times with Opti-MEM. One ml of culture medium then was added to the outside of the insert (basal side) and 100 μl added to the inside of the insert (apical side). The supernatant from the apical side was collected on day 2 after transfection, heated at 65° C. for 1 h to denature endogenous alkaline phosphatases (Berger et al., Gene, 1988), and assayed in triplicate for secreted alkaline phosphatase (SEAP) activity using an alkaline phosphatase reagent (Sigma) and human placental alkaline phosphatase (Calbiochem, La Jolla, Calif.) as a standard.
To inhibit NHBE cell proliferation, aphidicolin (0.5 μg/ml; Sigma) was added to culture medium on the basal side of the polarized NHBE cells for 18 h at 37° C. The cells were then transfected as described above except that the concentrations of cationic lipid and pDNA were 80 and 107 μM, respectively. After transfection, aphidicolin was present in the culture medium until the cells were harvested. […] Retinoic acid enhanced the inhibitory effect of aphidicolin on cell proliferation (Chou, R. H. et al., Cell & Tissue Kinetics, 18:387-97, 1985).

Series [4] deals with columnar epithelial cells in mouse trachea. Kind of series: Light and electron microscopy of trachea. The class given is in vivo. The source says:
Tracheas stained with X-gal were removed from the fixing solution and processed for light and electron microscopy using standard procedures. Briefly, the tissues were washed with PBS, dried in alcohols, embedded in glycol methacrylate (GMA) and stained with nuclear fast red. The Ogal-stained cells were identified by light microscopy. For electron microscopy, the fixed tissues were washed three times in Sabatini's solution (1×PBS containing 6.8% sucrose), and postfixed with 1% osmium tetroxide in 0.1 M cacodylate buffer (pH7.4) for an hour, followed by three washes with Sabatini's solution. The samples were then dehydrated with a graded series of alcohols (30, 50, 75, 90 and 100 % for 15 min each), followed by treatments with propylene oxide (15 min), a 1:1 Epon-propylene oxide mix (1 h), and three incubations in pure Epon (3 h, 3 h and overnight). Polymerization was at 64° C. overnight. After embedding, ultrathin sections were cut (MT2 Sorvall ultramicrotome) and stained with lead citrate and uranyl acetate and examined with a JEOL 100CX transmission electron microscope (TEM).

Series [5] relates to mouse trachea. Put plainly: Intranasal instillation of Ad2βgal-4, quantitative chemiluminescent βgal assay of trachea. In kind it is in vivo. How it is done: (§1) Female BALB/c mice 9-12 weeks of age were purchased from Taconic (Germantown, N.Y.). In some groups, mice were instilled intranasally with 25 μl of a solution containing EGTA (pH 7.5), followed by 25 μl of 5% sucrose in PBS containing Adβgal-4 (2×10^8 IU). In other groups, mice were co-instilled with 25 μl of a solution prepared by mixing equal volumes of a 2× (4×10^8 IU/25 μl) Ad2βgal-4 solution in 10% sucrose with 2×EGTA prior to instillation.
To quantify βgal expression, mice were sacrificed with an intraperitoneal injection of Somlethal (King Pharmaceuticals, Bristol, Tenn.) as described by Kaplan et al (1998), and samples of trachea from individual mice were homogenized in lysis buffer. βgal activity was measured with a commercial kit (Galactolight, Tropix, Bedford, Mass.). Protein concentration in the homogenate was measured using DC reagent (Bio-Rad, Hercules, Calif.). Results are expressed as relative light units (RLU) per milligram of total protein.

The subject of series [6] is mouse trachea. Kind of series: Intranasal instillation of Ad2βgal-4, X-gal staining of airways. The following applies: for X-gal staining in the trachea: FIG. 4. In kind it is in vivo. How it is done: as §1
Cytochemical localization of Ogal expression in the trachea was observed using 5-bromo-4-chloro-3-indolyl-β-D-galactopyranoside (X-gal; Sigma). In brief, cannulated mouse lungs were fixed for 10 min by infusion of a fixing solution (2% paraformaldehyde and 0.2% glutaraldehyde in PBS). The lungs were then rinsed twice with 50 mM glycine in PBS, filled with X-gal solution, and stained overnight. Staining was stopped by transfering the samples into the fixing solution.
Trachea with staining levels were defined on a scale of 0 to 3, 0 indicating no cells staining for βgal, and a value of 3 indicating a large number of cells positive for the transgene. To evaluate the effect of EGTA concentration on AdV-mediated gene transfer in the trachea, mice were pre-treated with various concentrations of EGTA 0.5 h before AdV instillation. In some animals, AdV and EGTA were co-instilled. To exclude the possibility that any observed enhancement of expression was due to a hyperosmotic effect of the EGTA solution, a 20% mannitol solution (osmolarity similar to 0.4M EGTA) was included as a control in both the pre-treatment and co-instillation models.

Turning to `O=C(O)CN(CCOCCOCCN(CC(=O)O)CC(=O)O)CC(=O)O` [EGTA, Ethylene glycol bis(B-aminoethyl ether) N,N,N′,N′-tetraacetic acid], the “increase in expression from an AdV infection” value in the series with polarized NHBE cells [1] is listed as approximately 50 fold. Also, in the series with polarized NHBE cells [2] (Table 1, grades Very Effective / Mildly Effective), the “Effects of Tight Junction Disrupting Compounds on Cationic Amphiphile: DNA Complex Binding” value is recorded as “Very Effective”. Further, in the series on polarized NHBE cells [2] (fully polarized NHBE cells pretreated before incubation with complexes), the complex internalization result was “increased dramatically”. For the same molecule, in the series on polarized NHBE cells [2] (pretreatment of fully polarized NHBE cells), the toxicity result is “minimal toxicity”. The “increasing the amount of internalized complex, compared with other reagents known to open tight junctions” value in the series with polarized NHBE cells [2] (vs EDTA, poly-lysine, sodium caprate, decanoylcarnitine, sodium glycocholate) was “most effective”. Besides, the “increase in SEAP expression” value in the series on polarized NHBE cells [3] (0.5 h pre-treatment, GL-67:pCF1-SEAP 40:53 μM 4 h, assayed after 48 h, FIG. 1) was approximately 55 fold. Also, the “ability to transfect with cationic lipid:pDNA complexes” value with polarized NHBE cells [3] (treatment of polarized normal human bronchial epithelial cells) is recorded as “significant enhancement”. Besides, in series [4] (0.4M), the “airway epithelial cell damage by EM” value is reported as “some damaged airway epithelial cells were observed”. Further, the “cells transduced by AdV in cartilaginous airways” value in series [4] (treated prior to AdV instillation) is reported as “localized to columnar epithelial cells”. The “time between treatment and AdV instillation giving maximal enhancement of β-gal expression” value with mouse trachea [5] (0.1M and 0.4M, FIG. 5B) turned out to be 0.5 h. Moreover, the “tracheal gene expression relative to co-instilling AdV with 0.05M EGTA” value in the series with mouse trachea [5] (pre-treated with 0.05 and 0.1M, FIG. 5A) is reported as more than 6 fold. The “X-gal staining in the trachea” value in the series on mouse trachea [6] (0.4M pre-treatment group) is “most consistent and highest X-gal staining”; in the series with mouse trachea [6] (treated mice vs AdV alone, 2×10^8 IU) it was “marked increase”. Further, in the series on mouse trachea [6] (virus instilled 0.5 h after treatment), the “gene expression in trachea, primary bronchi and small airways (X-gal staining)” value is given as “significantly enhanced”.
